Read-outs that look alike come from different tables or passages of the source.
Molecular target: SARS-CoV RTC (nsp12 in complex with nsp7L8) (Severe acute respiratory syndrome coronavirus, UniProt P0C6X7)
Test: biochemical

`O=c1ccn([C@@H]2O[C@H](COP(=O)(O)OP(=O)(O)OP(=O)(O)O)C[C@H]2O)c(=O)[nH]1` [3’dUTP] showed an IC50 of 6.7 µM.

`O=c1cc(-c2ccc(O)cc2)oc2cc(O)cc(O)c12` [Apigenin] gave an IC50 (IC50) of 96 µM.

With `O=c1cc(-c2ccc(Oc3c(O)cc4oc(-c5ccc(O)cc5)cc(=O)c4c3O)cc2)oc2cc(O)cc(O)c12` [Hinokiflavone] the IC50 (IC50) was 0.95 µM.
